Measurements reported in US6355799B1, “Substituted benzene compounds, process for their preparation, and herbicidal and defoliant compositions containing them” (ISK Americas Incorporated, priority 1997, dated 2002).

Key:
Assay type in all cases: in vivo
[1] = tested on: green foxtail (Setaria viridis, SETVI); assay: Pre-emerge test, greenhouse herbicide activity screening; conditions: pre-emerge, 14 days after application
How it was run: (§1)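 Plants grown in 10 cm pots of sandy loam mix received acetone-dissolved compounds through a moving flat-fan nozzle. Doses ranged from 15 to 1000 g ai/ha. Pre-emerge pots were seeded one day earlier, post-emerge pots 8–21 days earlier. Fourteen days on, each pot was graded 0–100 for damage.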

[2] = tested on: johnsongrass (Sorghum halepense, SORHA); assay: as above; conditions: pre-emerge, 14 days after application
How it was run: as §1

[3] = tested on: sicklepod (Cassia obtusifolia, CASOB); assay: as above; conditions: pre-emerge, 14 days after application
How it was run: as §1

[4] = tested on: ivyleaf morningglory (Ipomoea hederacea, IPOHE); assay: as above; conditions: pre-emerge, 14 days after application
How it was run: as §1

[5] = tested on: velvetleaf (Abutilon theophrasti, ABUTH); assay: as above; conditions: pre-emerge, 14 days after application
How it was run: as §1

[6] = tested on: barnyardgrass (Echinochloa crus-galli, ECHCG); assay: as above; conditions: pre-emerge, 14 days after application
How it was run: as §1

[7] = tested on: large crabgrass (Digitaria sanguinalis, DIGSA); assay: as above; conditions: pre-emerge, 14 days after application
How it was run: as §1

[8] = tested on: lambsquarters (Chenopodium album, CHEAL); assay: as above; conditions: pre-emerge, 14 days after application
How it was run: as §1

[9] = tested on: field corn (Zea mays L., var. Dekalb 535, CORN); assay: Post-emerge test, crop safety; conditions: post-emerge, 14 days after application, rating scale 0-100
How it was run: (§2)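 Each test used a mechanized track sprayer delivering 187 l/ha of acetone solution at 15–1000 g ai/ha. Post-emerge foliage at 2–3 leaves was treated with added 0.25% v/v non-ionic surfactant and bottom-watered only. Injury was assessed on day 14, where 100 means total kill.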

[10] = tested on: upland rice (Oryza sp., var. Tebonnet, RICE); assay: Post-emerge test, crop safety; conditions: post-emerge, 14 days after application, rating scale 0-100
How it was run: as §2

[11] = tested on: field corn (Zea mays L., var. Dekalb 535, CORN); assay: Pre-emerge test, crop safety; conditions: pre-emerge, 14 days after application; for phytotoxicity rating CORN (crop damage): scale 0-100; for phytotoxicity rating CORN: rating scale 0-100
How it was run: (§3)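 Fourteen days after spraying, crop and weed injury was graded visually from 0, no effect, to 100, every plant dead. Test substances were dissolved in acetone and applied at 15–1000 g ai/ha with a flat-fan nozzle. Application was either pre-emergence, one day after sowing, or post-emergence at the 2–3 leaf stage.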

[12] = tested on: upland rice (Oryza sp., var. Tebonnet, RICE); assay: Pre-emerge test, crop safety; conditions: pre-emerge, 14 days after application; for phytotoxicity rating RICE (crop damage): scale 0-100; for phytotoxicity rating RICE: rating scale 0-100
How it was run: as §3

[13] = tested on: redroot pigweed (Amaranthus retroflexus, AMARE); assay: Pre-emerge test, greenhouse herbicide activity screening; conditions: pre-emerge, 14 days after application
How it was run: as §1

[14] = tested on: green foxtail (Setaria viridis, SETVI); assay: Post-emerge test, greenhouse herbicide activity screening; conditions: post-emerge, 14 days after application, rating scale 0-100
How it was run: (§4)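 Applied at 15–1000 g ai/ha from acetone in 187 l/ha spray volume. Post-emergence applications included 0.25% v/v non-ionic surfactant and reached plants sown 8–21 days before. Pre-emergence applications were incorporated by surface watering. Efficacy or crop damage was rated on a 0–100 scale after 14 days.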

[15] = tested on: sicklepod (Cassia obtusifolia, CASOB); assay: as above; conditions: post-emerge, 14 days after application, rating scale 0-100
How it was run: as §4

[16] = tested on: ivyleaf morningglory (Ipomoea hederacea, IPOHE); assay: as above; conditions: post-emerge, 14 days after application, rating scale 0-100
How it was run: as §4

[17] = tested on: redroot pigweed (Amaranthus retroflexus, AMARE); assay: as above; conditions: post-emerge, 14 days after application
How it was run: as §4

[18] = tested on: velvetleaf (Abutilon theophrasti, ABUTH); assay: as above; conditions: post-emerge, 14 days after application, rating scale 0-100
How it was run: as §4

[19] = tested on: barnyardgrass (Echinochloa crus-galli, ECHCG); assay: as above; conditions: post-emerge, 14 days after application, rating scale 0-100
How it was run: as §4

[20] = tested on: large crabgrass (Digitaria sanguinalis, DIGSA); assay: as above; conditions: post-emerge, 14 days after application, rating scale 0-100
How it was run: as §4

[21] = tested on: lambsquarters (Chenopodium album, CHEAL); assay: as above; conditions: post-emerge, 14 days after application, rating scale 0-100
How it was run: as §4

[22] = 250 g ai/ha, rating scale 0-100

COc1c(Cl)cc(F)c(-n2c(=O)cc(C(F)(F)F)n(N)c2=O)c1NC(=O)C=Cc1ccccc1 [2-185]
10: phytotoxicity rating ECHCG ([6]; 63 g ai/ha, scale 0-100) | phytotoxicity rating ECHCG ([6]; 250 g ai/ha, scale 0-100) | DIGSA phytotoxicity rating ([20]; 250 g ai/ha)
35: RICE phytotoxicity rating (crop damage) ([10]; 250 g ai/ha)
80: IPOHE phytotoxicity rating ([16]; 250 g ai/ha) | AMARE phytotoxicity rating ([17]; 63 g ai/ha, rating scale 0-100)
50: phytotoxicity rating SETVI ([1]; 250 g ai/ha, scale 0-100)
60: phytotoxicity rating CASOB ([3]; 250 g ai/ha, scale 0-100) | phytotoxicity rating IPOHE ([4]; 63 g ai/ha, scale 0-100) | phytotoxicity rating IPOHE ([4]; 250 g ai/ha, scale 0-100) | CASOB phytotoxicity rating ([15]; 250 g ai/ha) | IPOHE phytotoxicity rating ([16]; 63 g ai/ha)
5: CORN phytotoxicity rating (crop damage) ([9]; 250 g ai/ha) | phytotoxicity rating CORN (crop damage) ([11]; 250 g ai/ha)
40: phytotoxicity rating DIGSA ([7]; 250 g ai/ha, scale 0-100) | phytotoxicity rating RICE (crop damage) ([12]; 250 g ai/ha) | CASOB phytotoxicity rating ([15]; 63 g ai/ha)
0: phytotoxicity rating CASOB ([3]; 63 g ai/ha, scale 0-100) | CORN phytotoxicity rating (crop damage) ([9]; 63 g ai/ha) | phytotoxicity rating CORN (crop damage) ([11]; 63 g ai/ha) | SETVI phytotoxicity rating ([14]; 63 g ai/ha) | ECHCG phytotoxicity rating ([19]; 63 g ai/ha) | ECHCG phytotoxicity rating ([19]; 250 g ai/ha) | DIGSA phytotoxicity rating ([20]; 63 g ai/ha)
90: phytotoxicity rating ABUTH ([5]; 63 g ai/ha, scale 0-100)
100: phytotoxicity rating ABUTH ([5]; 250 g ai/ha, scale 0-100) | phytotoxicity rating CHEAL ([8]; 63 g ai/ha, scale 0-100) | phytotoxicity rating CHEAL ([8]; 250 g ai/ha, scale 0-100) | phytotoxicity rating AMARE ([13]; 63 g ai/ha, scale 0-100) | phytotoxicity rating AMARE ([13]; 250 g ai/ha, scale 0-100) | AMARE phytotoxicity rating [17, 22] | ABUTH phytotoxicity rating ([18]; 63 g ai/ha) | ABUTH phytotoxicity rating ([18]; 250 g ai/ha) | CHEAL phytotoxicity rating ([21]; 250 g ai/ha)
70: CHEAL phytotoxicity rating ([21]; 63 g ai/ha)
30: phytotoxicity rating SETVI ([1]; 63 g ai/ha, scale 0-100)
20: phytotoxicity rating SORHA ([2]; 63 g ai/ha, scale 0-100) | phytotoxicity rating SORHA ([2]; 250 g ai/ha, scale 0-100) | phytotoxicity rating DIGSA ([7]; 63 g ai/ha, scale 0-100) | RICE phytotoxicity rating (crop damage) ([10]; 63 g ai/ha) | phytotoxicity rating RICE (crop damage) ([12]; 63 g ai/ha) | SETVI phytotoxicity rating ([14]; 250 g ai/ha)

COc1c(Cl)cc(F)c(-n2c(=O)cc(C(F)(F)F)n(C)c2=O)c1NNC(=O)Oc1ccccc1 [15-7]
30: Post-emerge Herbicidal Activity SETVI (phytotoxicity rating) ([14]; 63 g ai/ha)
20: Post-emerge Herbicidal Activity DIGSA (phytotoxicity rating) ([20]; 63 g ai/ha)
75: Post-emerge Herbicidal Activity DIGSA (phytotoxicity rating) ([20]; 250 g ai/ha)
50: Post-emerge Herbicidal Activity RICE (crop damage rating) ([10]; 63 g ai/ha)
95: phytotoxicity rating SORHA ([2]; 63 g ai/ha, rating scale 0-100) | phytotoxicity rating IPOHE ([4]; 63 g ai/ha, rating scale 0-100) | Post-emerge Herbicidal Activity ECHCG (phytotoxicity rating) ([19]; 250 g ai/ha)
60: Post-emerge Herbicidal Activity CORN (crop damage rating) ([9]; 63 g ai/ha) | Post-emerge Herbicidal Activity CASOB (phytotoxicity rating) ([15]; 63 g ai/ha)
90: phytotoxicity rating DIGSA ([7]; 63 g ai/ha, rating scale 0-100) | Post-emerge Herbicidal Activity RICE (crop damage rating) ([10]; 250 g ai/ha) | phytotoxicity rating RICE ([12]; 63 g ai/ha) | Post-emerge Herbicidal Activity SETVI (phytotoxicity rating) ([14]; 250 g ai/ha)
85: phytotoxicity rating CORN ([11]; 63 g ai/ha)
80: phytotoxicity rating ECHCG ([6]; 63 g ai/ha, rating scale 0-100) | Post-emerge Herbicidal Activity CORN (crop damage rating) ([9]; 250 g ai/ha)
100: phytotoxicity rating SETVI ([1]; 63 g ai/ha, rating scale 0-100) | phytotoxicity rating SETVI [1, 22] | phytotoxicity rating SORHA [2, 22] | phytotoxicity rating CASOB ([3]; 63 g ai/ha, rating scale 0-100) | phytotoxicity rating CASOB [3, 22] | phytotoxicity rating IPOHE [4, 22] | phytotoxicity rating ABUTH ([5]; 63 g ai/ha, rating scale 0-100) | phytotoxicity rating ABUTH [5, 22] | phytotoxicity rating ECHCG [6, 22] | phytotoxicity rating DIGSA [7, 22] | phytotoxicity rating CHEAL ([8]; 63 g ai/ha, rating scale 0-100) | phytotoxicity rating CHEAL [8, 22] | phytotoxicity rating CORN ([11]; 250 g ai/ha) | phytotoxicity rating RICE ([12]; 250 g ai/ha) | phytotoxicity rating AMARE ([13]; 63 g ai/ha, rating scale 0-100) | phytotoxicity rating AMARE [13, 22] | Post-emerge Herbicidal Activity CASOB (phytotoxicity rating) ([15]; 250 g ai/ha) | Post-emerge Herbicidal Activity IPOHE (phytotoxicity rating) ([16]; 63 g ai/ha) | Post-emerge Herbicidal Activity IPOHE (phytotoxicity rating) ([16]; 250 g ai/ha) | Post-emerge Herbicidal Activity AMARE (phytotoxicity rating) ([17]; 63 g ai/ha, rating scale 0-100 (0 no damage, 100 complete death)) | Post-emerge Herbicidal Activity AMARE (phytotoxicity rating) [17, 22] | Post-emerge Herbicidal Activity ABUTH (phytotoxicity rating) ([18]; 63 g ai/ha) | Post-emerge Herbicidal Activity ABUTH (phytotoxicity rating) ([18]; 250 g ai/ha) | Post-emerge Herbicidal Activity CHEAL (phytotoxicity rating) ([21]; 63 g ai/ha) | Post-emerge Herbicidal Activity CHEAL (phytotoxicity rating) ([21]; 250 g ai/ha)
40: Post-emerge Herbicidal Activity ECHCG (phytotoxicity rating) ([19]; 63 g ai/ha)
